Test results published in paper PMC6662757, “A small molecule inhibitor of ER-to-cytosol protein dislocation exhibits anti-dengue and anti-Zika virus activity” (Scientific Reports, 2019).

Key:
OS9 = target: T1, OS9 (Homo sapiens, UniProt Q13438); test: cellular thermal shift assay (CETSA), immunoblot; assay type: cell-based; conditions: HeLa cells treated with 10 µM CP26, 37 °C, 2 h, then lysed in 0.4% NP-40 and heated 3 min; direct target within the Hrd1 complex not defined
T1 construct: endogenous protein in HeLa cells, heated in NP-40 lysate; component of the Hrd1 complex
T1 sequence (Q13438 26-667): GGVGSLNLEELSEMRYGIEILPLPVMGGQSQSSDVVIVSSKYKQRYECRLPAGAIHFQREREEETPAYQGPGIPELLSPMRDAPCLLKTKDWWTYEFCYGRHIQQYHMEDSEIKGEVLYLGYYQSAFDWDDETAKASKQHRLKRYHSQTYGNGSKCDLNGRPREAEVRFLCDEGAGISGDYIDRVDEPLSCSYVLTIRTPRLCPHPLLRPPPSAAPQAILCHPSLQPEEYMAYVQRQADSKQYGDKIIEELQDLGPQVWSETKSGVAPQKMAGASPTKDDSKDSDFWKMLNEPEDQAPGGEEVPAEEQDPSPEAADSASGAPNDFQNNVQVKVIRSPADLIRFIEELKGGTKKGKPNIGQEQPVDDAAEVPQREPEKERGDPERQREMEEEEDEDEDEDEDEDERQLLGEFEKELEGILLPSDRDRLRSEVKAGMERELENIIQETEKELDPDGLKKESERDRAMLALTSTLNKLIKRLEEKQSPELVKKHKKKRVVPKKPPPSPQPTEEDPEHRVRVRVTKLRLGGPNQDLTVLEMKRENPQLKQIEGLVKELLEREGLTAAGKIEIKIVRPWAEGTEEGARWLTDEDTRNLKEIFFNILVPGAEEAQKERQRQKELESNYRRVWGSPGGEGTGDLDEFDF

Derlin2 = target: T2, Derlin2 (Homo sapiens, UniProt Q9GZP9); test: cellular thermal shift assay (CETSA), immunoblot; assay type: cell-based; conditions: HeLa cells treated with 10 µM CP26, 37 °C, 2 h, then lysed in 0.4% NP-40 and heated 3 min; direct target within the Hrd1 complex not defined
T2 construct: gene DERL2; endogenous protein in HeLa cells, heated in NP-40 lysate; component of the Hrd1 complex
T2 sequence (Q9GZP9 1-239): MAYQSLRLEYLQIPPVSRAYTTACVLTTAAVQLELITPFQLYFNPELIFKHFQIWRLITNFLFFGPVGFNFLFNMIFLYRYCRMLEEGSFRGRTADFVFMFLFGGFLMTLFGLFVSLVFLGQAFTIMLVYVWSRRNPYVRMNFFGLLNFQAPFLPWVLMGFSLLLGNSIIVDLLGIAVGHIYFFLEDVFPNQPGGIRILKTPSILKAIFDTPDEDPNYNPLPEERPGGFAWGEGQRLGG

SMILES: Cc1ccc(C=C2C(Cl)=C(Cl)C(Cl)=C2Cl)cc1 [CP26, 1-methyl-4-[(2,3,4,5-tetrachlorocyclopenta-2,4-dien-1-ylidene)methyl]benzene]
- thermal stability increase (OS9): CP26 selectively increased the thermal stability of Derlin2 and OS9
- thermal stability increase (Derlin2): CP26 selectively increased the thermal stability of Derlin2 and OS9
